This note sets out measurements from patent US20220289732A1, “HETEROCYCLIC WDR5 INHIBITORS AS ANTI-CANCER COMPOUNDS” (NOVARTIS AG, priority 2019, published 2022).

Where only a bound is given, the exact number is not on record here.

One assay concerns the target WDR5 (Homo sapiens, UniProt P61964). In words: WDR5 HTRF binding assay. The note with it: read-out: (a) WDR5 HTRF Pep Val v.1[Inhibitor/IC50]Qualified AC50. The gist of the method:
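In this HTRF displacement format, biotinylated MLL1 WIN peptide (3762-3773, 20 nM) binds WDR5 (6 nM) in 25 mM Hepes pH 7.5 with 100 mM NaCl, 2 mM DTT and 0.1% BSA for 20 min at rt. Detection used streptavidin-APC/anti-His-Eu for 1 hr. IC50 came from dose-response fits of normalized signal; 15 nM biotin-PEG-His peptide served as counter assay.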

The target in assay [1] is wild type MLL1 four-member complex (MLL1-4C) (Homo sapiens, UniProt P61964). In words: MLL1 LC-MS assay (SAH production). The format is biochemical. As to conditions: read-out: (b) MLL LCMS Peptide Val.v.1 Qualified AC50. Put shortly:
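SAH formation, measured by LC-MS/MS after a TFA quench containing d4-SAH, was normalised to no-compound and no-enzyme controls and fitted to a dose-response curve for IC50. Reactions ran 120 min at rt (pH 8.0 Tris buffer) with final 30 nM MLL1 four-member complex, 2.5 μM SAM and 10 μM biotinylated H3[1-21] peptide, after a 20-min enzyme/SAM-compound preincubation.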

A further assay concerns MV4-11 cells. In words: MV4-11 6-day cell growth CTG (CellTiter-Glo) assay. As to conditions: Homo sapiens, MV4-11, 144 h, 6 days, read-out: (c) MLL/WDR5 cell proliferation assay//MLL/WDR5 proliferation MV4:11 Qualified AC50. The format is cell-based. The gist of the method: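 IC50 comes from a dose-response fit of % inhibition relative to DMSO controls, with viable cells measured by CellTiter-Glo luminescence. Compounds were tested over 12 points (1:3, starting at 50 μM final) on MV4-11 cells plated at 300/well and grown 6 days.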

For `CNc1nccn1Cc1cc(CN2CC(O)C2)c2c(c1)C(=O)N([C@@H](C)c1cc(OC)c(F)cn1)CC2` (single isomer, unassigned) [Example 51], the IC50 on WDR5 is under 10 nM. Also, the AC50 (in assay [1]; with MV4-11 cells) was 10 to 1000 nM throughout.

`CCOc1cc(C(C)N2CCc3c(cc(CCN(C)CC)cc3C(O)C(F)(F)F)C2=O)ncc1C#N` (stereo not drawn) [Example 259, 4-ethoxy-6-(1-(7-(2-(ethyl(methyl)amino)ethyl)-1-oxo-5-(2,2,2-trifluoro-1-hydroxyethyl)-3,4-dihydroisoquinolin-2(1H)-yl)ethyl)nicotinonitrile]: at WDR5, the IC50 was under 10 nM. For the same molecule, the AC50 (in assay [1]; in the assay with MV4-11 cells) was 10 to 1000 nM throughout.

Take `CNc1nccn1Cc1cc(-c2cc(C(C)O)cnc2Cl)c2ccn(Cc3ccc(F)c(OC)c3)c(=O)c2c1` (stereo not drawn) [Example 106, 5-(2-chloro-5-(1-hydroxyethyl)pyridin-3-yl)-2-(4-fluoro-3-methoxybenzyl)-7-((2-(methylamino)-1H-imidazol-1-yl)methyl)isoquinolin-1(2H)-one]: the IC50 at WDR5 fell in the range of 10 to 1000 nM. The AC50 (in assay [1]; with MV4-11 cells) was 10 to 1000 nM each time.

As to `CCOc1cc([C@H](C)N2CCc3c(cc(CCN(C)CC)cc3-c3cc(C)cnc3C)C2=O)ncc1C#N` [Example 114, (S)-6-(1-(5-(2,5-dimethylpyridin-3-yl)-7-(2-(ethyl(methyl)amino)ethyl)-1-oxo-3,4-dihydroisoquinolin-2(1H)-yl)ethyl)-4-ethoxynicotinonitrile], the IC50 at WDR5 was under 10 nM. The AC50 (in assay [1]; in the assay on MV4-11 cells) was 10 to 1000 nM throughout.

In the case of `CCOc1cc([C@H](C)N2CCc3c(CN4CCOCC4)cc(Cn4ccnc4NC)cc3C2=O)ncc1F` [Example 27, (S)-2-(1-(4-ethoxy-5-fluoropyridin-2-yl)ethyl)-7-((2-(methylamino)-1H-imidazol-1-yl)methyl)-5-(morpholinomethyl)-3,4-dihydroisoquinolin-1(2H)-one], on WDR5, the IC50 lay within 10 to 1000 nM. Further, the AC50 (in assay [1]; in the assay with MV4-11 cells) was 10 to 1000 nM each time.

In the case of `CCOc1cc([C@H](C)N2CCc3c(CN4CC(F)(F)C4)cc(Cn4ccnc4NC)cc3C2=O)ncc1C#N` [Example 40, (S)-6-(1-(5-((3,3-difluoroazetidin-1-yl)methyl)-7-((2-(methylamino)-1H-imidazol-1-yl)methyl)-1-oxo-3,4-dihydroisoquinolin-2(1H)-yl)ethyl)-4-ethoxynicotinonitrile], on WDR5, the IC50 is 10 to 1000 nM. The AC50 (in assay [1]; in the assay with MV4-11 cells) was 10 to 1000 nM in each case.

As for `CCOc1cc([C@H](C)N2CCc3c(cc(CCN(C)CC)cc3-c3c[nH]c(=O)cc3C(F)(F)F)C2=O)ncc1C#N` [Example 176, (S)-4-ethoxy-6-(1-(7-(2-(ethyl(methyl)amino)ethyl)-1-oxo-5-(6-oxo-4-(trifluoromethyl)-1,6-dihydropyridin-3-yl)-3,4-dihydroisoquinolin-2(1H)-yl)ethyl)nicotinonitrile], the IC50 at WDR5 was under 10 nM. Moreover, the AC50 in assay [1] is 10 to 1000 nM; in the assay on MV4-11 cells, under 10 nM.

Consider `CCOc1cc([C@H](C)N2CCc3c(cc(CCN4C[C@@H](O)[C@H]4C)cc3-c3cc(C)ncc3C)C2=O)ncc1C#N` [Example 221], for which the IC50 on WDR5 is under 10 nM. Further, the AC50 (in assay [1]; in the assay with MV4-11 cells) was 10 to 1000 nM each time.

With `CCOc1cc(CN2CCc3c(cc(CCN(C)CC)cc3-c3cc(C)ncc3F)C2=O)ncc1C#N` [Example 154, 4-ethoxy-6-((7-(2-(ethyl(methyl)amino)ethyl)-5-(5-fluoro-2-methylpyridin-4-yl)-1-oxo-3,4-dihydroisoquinolin-2(1H)-yl)methyl)nicotinonitrile], the IC50 on WDR5 is 10 to 1000 nM. For the same molecule, the AC50 (in assay [1]; in the assay on MV4-11 cells) was 10 to 1000 nM in each case.

For `CNc1nccn1Cc1cc2c(c(-c3cc(CO)cnc3Cl)c1)CCN([C@@H](C)c1ccc(F)c(OC)c1)C2=O` [Example 56, (S)-5-(2-chloro-5-(hydroxymethyl)pyridin-3-yl)-2-(1-(4-fluoro-3-methoxyphenyl)ethyl)-7-((2-(methylamino)-1H-imidazol-1-yl)methyl)-3,4-dihydroisoquinolin-1(2H)-one], at WDR5, the IC50 lay in the range of 10 to 1000 nM. In addition, the AC50 (in assay [1]; in the assay on MV4-11 cells) was 10 to 1000 nM throughout.

As for `CCOc1cc([C@H](C)N2CCc3c(cc(CCN4C[C@@H](O)[C@H]4C)cc3-c3ccc(N)nc3C)C2=O)ncc1C#N` [Example 219], the IC50 on WDR5 is under 10 nM. Further, the AC50 (in assay [1]; in the assay with MV4-11 cells) was 10 to 1000 nM throughout.

As to `CCN(C)CCc1cc2c(c(-c3ccc(F)nc3C)c1)CCN(Cc1cnc(F)c(OC)c1)C2=O` [Example 137, 7-(2-(ethyl(methyl)amino)ethyl)-5-(6-fluoro-2-methylpyridin-3-yl)-2-((6-fluoro-5-methoxypyridin-3-yl)methyl)-3,4-dihydroisoquinolin-1(2H)-one], the IC50 at WDR5 was under 10 nM. For the same molecule, the AC50 (in assay [1]; with MV4-11 cells) was 10 to 1000 nM in each case.

Turning to `CCN(C)CCc1cc2c(c(-c3cn(C)nc3C(F)F)c1)CCN(C(C)c1cnc(F)c(OC)c1)C2=O` (stereo not drawn) [Example 146, 5-(3-(difluoromethyl)-1-methyl-1H-pyrazol-4-yl)-7-(2-(ethyl(methyl)amino)ethyl)-2-(1-(6-fluoro-5-methoxypyridin-3-yl)ethyl)-3,4-dihydroisoquinolin-1(2H)-one], the IC50 on WDR5 was in the range of 10 to 1000 nM. The AC50 (in assay [1]; in the assay on MV4-11 cells) was 10 to 1000 nM each time.

In the case of `CCOc1cc([C@H](C)N2CCc3c(cc(CCN(C)CC)cc3-c3cc(N)ncc3C)C2=O)ncc1C#N` [Example 162, (S)-6-(1-(5-(2-amino-5-methylpyridin-4-yl)-7-(2-(ethyl(methyl)amino)ethyl)-1-oxo-3,4-dihydroisoquinolin-2(1H)-yl)ethyl)-4-ethoxynicotinonitrile], the IC50 at WDR5 was under 10 nM. Moreover, the AC50 (in assay [1]; with MV4-11 cells) was 10 to 1000 nM each time.

As for `CCOc1cc(C(C)N2CCc3c(cc(CCN(C)CC)cc3N3CCCC3)C2=O)ncc1C#N` (stereo not drawn) [Example 207, 4-ethoxy-6-(1-(7-(2-(ethyl(methyl)amino)ethyl)-1-oxo-5-(pyrrolidin-1-yl)-3,4-dihydroisoquinolin-2(1H)-yl)ethyl)nicotinonitrile], the IC50 at WDR5 was 10 to 1000 nM. For the same molecule, the values for the AC50 (in assay [1]; in the assay with MV4-11 cells) were 10 to 1000 nM and 1000 to 25000 nM, respectively.

`CCOc1cc([C@H](C)N2CCc3c(cc(CCN(C)CC)cc3-c3ccn(C)c(=O)c3Cl)C2=O)ncc1C#N` [Example 194, (S)-6-(1-(5-(3-chloro-1-methyl-2-oxo-1,2-dihydropyridin-4-yl)-7-(2-(ethyl(methyl)amino)ethyl)-1-oxo-3,4-dihydroisoquinolin-2(1H)-yl)ethyl)-4-ethoxynicotinonitrile]: the IC50 on WDR5 is under 10 nM. The AC50 (in assay [1]; in the assay on MV4-11 cells) was 10 to 1000 nM each time.

For `CCOc1cc(C(C)N2CCc3c(cc(CCN(C)CC)cc3-c3cc(Cl)nnc3Cl)C2=O)ncc1C#N` (stereo not drawn) [Example 168, 6-(1-(5-(3,6-dichloropyridazin-4-yl)-7-(2-(ethyl(methyl)amino)ethyl)-1-oxo-3,4-dihydroisoquinolin-2(1H)-yl)ethyl)-4-ethoxynicotinonitrile], on WDR5, the IC50 was under 10 nM. For the same molecule, the AC50 (in assay [1]; in the assay with MV4-11 cells) was 10 to 1000 nM throughout.

As for `CCOc1cc(CN2CCc3c(cc(Cn4ccnc4C)cc3-c3cn(C)c(=O)cc3C(F)(F)F)C2=O)ncc1C#N` [Example 297], at WDR5, the IC50 was under 10 nM. Moreover, the AC50 in assay [1] was 10 to 1000 nM; in the assay with MV4-11 cells, under 10 nM.

For the molecule `CCOc1cc(CN2CCc3c(cc(CCN(C)CC)cc3-c3ccc(N)nc3C)C2=O)ncc1C#N` [Example 155, 6-((5-(6-amino-2-methylpyridin-3-yl)-7-(2-(ethyl(methyl)amino)ethyl)-1-oxo-3,4-dihydroisoquinolin-2(1H)-yl)methyl)-4-ethoxynicotinonitrile], the IC50 on WDR5 lay in the range of 10 to 1000 nM. Also, the AC50 (in assay [1]; in the assay on MV4-11 cells) was 10 to 1000 nM each time.

For `CCOc1cc(C(C)N2CCc3c(cc(CCN(C)CC)cc3-c3cc(OC)ncc3Cl)C2=O)ncc1C#N` (stereo not drawn) [Example 136, 6-(1-(5-(5-chloro-2-methoxypyridin-4-yl)-7-(2-(ethyl(methyl)amino)ethyl)-1-oxo-3,4-dihydroisoquinolin-2(1H)-yl)ethyl)-4-ethoxynicotinonitrile], the IC50 at WDR5 is under 10 nM. For the same molecule, the AC50 (in assay [1]; with MV4-11 cells) was 10 to 1000 nM throughout.

As to `CNc1nccn1Cc1cc2c(c(-c3ccnn3C)c1)CCN(Cc1ccc(F)c(OC)c1)C2=O` [Example 72, 2-(4-fluoro-3-methoxybenzyl)-5-(1-methyl-1H-pyrazol-5-yl)-7-((2-(methylamino)-1H-imidazol-1-yl)methyl)-3,4-dihydroisoquinolin-1(2H)-one], the IC50 at WDR5 was in the range of 10 to 1000 nM. Moreover, the AC50 (in assay [1]; in the assay with MV4-11 cells) was 10 to 1000 nM in each case.

As to `CCOc1cc(C(C)N2CCc3c(Br)cc(Cn4ccnc4NC)cc3C2=O)ncc1C#N` (stereo not drawn) [Example 1, 6-(1-(5-bromo-7-((2-(methylamino)-1H-imidazol-1-yl)methyl)-1-oxo-3,4 dihydroisoquinolin-2(1H)-yl)ethyl)-4-ethoxynicotinonitrile], the IC50 at WDR5 was in the range of 10 to 1000 nM. The AC50 (in assay [1]; with MV4-11 cells) was 10 to 1000 nM throughout.
